In assay [1] the target is T1, Cholinesterase (Homo sapiens, UniProt P06276). Nature of the assay: Binding affinity to human BuChE (unknown origin) assessed as overall carbamolyation rate at 0.025 to 100 uM incubated for 60 mins.
The target in assay [2] is T1, Cholinesterase. The experiment in a line: Binding affinity to human BuChE (unknown origin) assessed as overall carbamolyation rate at 100 to 1000 nM incubated for 60 mins.

T1 sequence (P06276 whole entry): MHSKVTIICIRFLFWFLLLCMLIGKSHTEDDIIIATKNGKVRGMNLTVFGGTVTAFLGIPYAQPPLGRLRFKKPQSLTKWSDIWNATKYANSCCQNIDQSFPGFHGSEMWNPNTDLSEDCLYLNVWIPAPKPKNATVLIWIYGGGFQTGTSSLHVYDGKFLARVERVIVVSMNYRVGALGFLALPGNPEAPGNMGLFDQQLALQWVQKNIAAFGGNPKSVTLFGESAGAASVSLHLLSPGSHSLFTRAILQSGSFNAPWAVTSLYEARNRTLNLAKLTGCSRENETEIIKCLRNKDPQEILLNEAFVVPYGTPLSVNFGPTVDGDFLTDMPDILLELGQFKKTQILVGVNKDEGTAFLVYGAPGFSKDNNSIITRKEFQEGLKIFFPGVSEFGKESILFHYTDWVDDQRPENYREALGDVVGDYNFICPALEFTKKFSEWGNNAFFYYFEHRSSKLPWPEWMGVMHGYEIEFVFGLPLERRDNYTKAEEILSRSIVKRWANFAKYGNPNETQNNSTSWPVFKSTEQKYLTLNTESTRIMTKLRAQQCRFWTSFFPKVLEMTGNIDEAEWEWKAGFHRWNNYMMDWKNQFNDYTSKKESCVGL

For orientation: Ki means the dissociation constant of the complex between target and ligand, obtained from inhibition or displacement. As to `COc1ccc(C(C)=O)c(OC(=O)N2CCCCC2)c1`, on Cholinesterase [1], the Ki was 0.31 nM.
Turning to `COc1ccc(C(C)=O)c(OC(=O)N(C)Cc2ccc(F)cc2)c1`, on Cholinesterase [2], the Ki was determined as 2.8 nM.

The values above are taken from BindingDB's records for PubMed 39481228 (Anhui Medical University).
